Measured values from paper PMC10515486, “Peptide Bispecifics Inhibiting HIV-1 Infection by an Orthogonal Chemical and Supramolecular Strategy” (Bioconjugate Chemistry, 2023).
pIC50: −log10 of the molar value. Non-standard residues stand in square brackets, D forms with d. Residues, ends and D or L forms follow the SMILES beside them. No end group written: not given here. *: point of attachment. X1 = O=C(CCCC[C@@H]1SC[C@@H]2NC(=O)N[C@@H]21)NCCOCCOCCOCCOCCOCCOCCOCCOCCOCCOCCOCCNC(=O)CCN1C(=O)CC(*)C1=O

Assays:
X4-tropic HIV-1 = experiment: Replication kinetics in human PBMCs, X4-tropic HIV-1; format: cell-based; conditions: activated PBMCs from three human donors; 1 μM compound, AMD3100 1 μM, MVC 50 nM; supernatants titrated on TZM-bl cells
Experimental: (§1) (A) TZM-bl cells were pretreated with the indicated amounts of the single or multivalent compound and infected with X4- or R5-tropic HIV-1. Three days post-infection, a β-galactosidase assay was performed. […] (B) Human PBMCs were isolated, stimulated, and pretreated with 1 μM of the indicated single- or multivalent compound, Maraviroc (MVC/50 nM) or AMD3100 (1 μM). The cells were infected with X4- or R5-tropic HIV-1. Infectious virus yield was determined by infection of TZM-bl reporter cells with PBMC culture supernatants obtained at the indicated day post-infection (dpi). […]

R5-tropic HIV-1 NL4-3 = system: R5-tropic HIV-1 NL4-3
Excerpt: (§2) TZM-bl reporter cells were pretreated with increasing concentrations of the mono- and multivalent compounds and subsequently infected with the well-characterized X4-tropic HIV-1 NL4-3 molecular clone or an R5-tropic derivative thereof that differs in the V3 region of the viral envelope glycoprotein from the parental virus (Figure 5A).[39]
as §1
(§3) in supplemented RPMI-1640 and incubated with Human T-Activator CD3/CD28 […]
(§4) Virus stocks were generated by transient transfection of HEK293T cells using the calcium-phosphate precipitation method. One day before transfection, 0.8 x 10^6 HEK293T cells were seeded in 6 -well plates (Greiner Bio -one, Frickenhausen, Germany). At a confluence of 60-80% cells were used for transfection. For the […]

X4-tropic HIV-1 NL4-3 = conditions: read-out: IC50 X4; TZM-bl cells pretreated, infected with X4-tropic HIV-1 NL4-3; β-galactosidase 3 days p.i.; molarity of biotin-conjugated peptide or of SAv construct (per construct); nonlinear regression
Excerpt: as §2, §1, §3, §4

wild-type HIV-1 NL4-3 = conditions: Figure 2B
Excerpt: (B) Inhibition of wild-type HIV-1 NL4-3 by single-cysteine VIRIP derivatives.

R5-tropic HIV-1 = experiment: Replication kinetics in human PBMCs, R5-tropic HIV-1; format: cell-based; conditions: activated PBMCs from three human donors; 1 μM compound, AMD3100 1 μM, MVC 50 nM; supernatants titrated on TZM-bl cells
Experimental: Figure 5 Antiviral activity of single- and multivalent VIR-102C9/EPI-X4 JM#173-C conjugates. Concentrations indicate the molarity of the tested biotin-conjugated peptides or of the SAv conjugates with four copies of mono- or bispecific peptides respectively. (A) TZM-bl cells were pretreated with the indicated amounts of the single or multivalent compound and infected with X4- or R5-tropic HIV-1. Three days post-infection, a β-galactosidase assay was performed. IC50 values are given in the SI (Table S2). (B) Human PBMCs were isolated, stimulated, and pretreated with 1 μM of the indicated single- or multivalent compound, Maraviroc (MVC/50 nM) or AMD3100 (1 μM). […] Infectious virus yield was determined by infection of TZM-bl reporter cells with PBMC culture supernatants obtained at the indicated day post-infection (dpi). […] They are assigned to (14) only because they sit in the plots with the purple curve, matched to the colour legend. / 14, IC50 (X4): small print, 0.026 could be 0.028 or 0.025 / 14, IC50 (R5): small print, 0.039 could be 0.038 or 0.089 / Substance label in the legend reads 'SAv-VIR-1029C-', but panel B prints 'SAv-VIR-102C9'. […]
Cell viability was determined by the Cell Titer-Glo 2.0 Cell Viability Assay according to the manufacturer’s instructions. […]
After 48 h, cell viability was assessed by measuring ATP levels in cells lysates with the commercially available Cell Titer-Glo kit. […]

HIV-1 NL4-3 = experiment: TZM-bl infection with HIV-1 NL4-3 preincubated with carrier compounds; format: cell-based; conditions: virus preincubated with increasing amounts of carrier; β-galactosidase 3 days p.i.; three biological replicates
Experimental: To determine the infectivity of virions produced in infected human |PBMCs, TZM-bl cells were seeded in 96 -well plates at a density of 10,000 cells/well and infected after overnight incubation with the supernatants collected from the PBMC cultures. Three days p.i., viral infectivity was determined using a galactosidase screen kit from Tropix as recommended by the manufacturer. β-Galactosidase activities were quantified as relative light units (RLU) per second with an Orion Microplate luminometer (Berthold) . […]
infected with HIV-1 NL4-3 that was preincubated with increasing amounts of the carrier compounds Avidin, Neutravidin or Streptavidin. Three days post infection , a β-galactosidase assay was performed.
Each dot represents three biological replicates ± SEM.
(1 picture or pasted object on this page, not shown here)

In the case of `c1cc(CN2CCCNCCNCCCNCC2)ccc1CN1CCCNCCNCCCNCC1` [AMD3100], the “replication of X4-tropic HIV-1 in PBMCs (infectious virus yield)” value (X4-tropic HIV-1) was “blocked”.
Work on `CC[C@H](C)[C@H](NC(=O)[C@H](CO)NC(=O)[C@H](CCSC)NC(=O)[C@@H]1CCCN1C(=O)[C@@H](NC(=O)[C@H](C)NC(=O)[C@H](CCC(=O)O)NC(=O)[C@@H](N)CC(C)C)[C@@H](C)CC)C(=O)N[C@@H](CSC1CC(=O)N(CCC(=O)NCCOCCOCCOCCOCCOCCOCCOCCOCCOCCOCCOCCNC(=O)CCCC[C@@H]2SC[C@@H]3NC(=O)N[C@@H]32)C1=O)C(=O)N1CCC[C@H]1C(=O)N[C@@H](CCC(=O)O)C(=O)N[C@H](C(=O)N[C@@H](Cc1ccccc1)C(=O)N[C@@H](Cc1ccccc1)C(=O)N[C@@H](CC(N)=O)C(=O)N[C@@H](CCCCN)C(=O)N1CCC[C@H]1C(=O)N[C@@H](Cc1ccccc1)C(=O)N[C@H](C(=O)N[C@@H](Cc1ccccc1)C(=O)O)C(C)C)C(C)C` (stereo partly shown) [compound 5] (H-LEAIPMSIC(X1)PEVFFNKPFVF-OH; N-terminus and C-terminus assumed) yielded a pIC50 (R5-tropic HIV-1 NL4-3; read-out: IC50 R5, TZM-bl cells pretreated, infected with R5-tropic HIV-1 NL4-3 derivative, β-galactosidase 3 days p.i., molarity of biotin-conjugated peptide or of SAv construct (per construct)) of 5.92 and a pIC50 (X4-tropic HIV-1 NL4-3) of 5.95.
In the case of `CC[C@@H](C)[C@@H](N)C(=O)N[C@@H](CC(C)C)C(=O)N[C@@H](CCCNC(=N)N)C(=O)N[C@@H](Cc1c[nH]c2ccccc12)C(=O)N[C@@H](CO)C(=O)N[C@@H](CCCNC(=N)N)C(=O)N[C@@H](CCCCN)C(=O)N[C@@H](CSC1CC(=O)N(CCC(=O)NCCOCCOCCOCCOCCOCCOCCOCCOCCOCCOCCOCCNC(=O)CCCC[C@@H]2SC[C@@H]3NC(=O)N[C@@H]32)C1=O)C(N)=O` (stereo partly shown) [compound 6] (H-[dI]LRWSRKC(X1)-NH2; N-terminus and C-terminus assumed), the “activity against the R5-tropic derivative (in words)” value (R5-tropic HIV-1 NL4-3; TZM-bl cells) was “inactive”.
LEAIPMSICPEVFFNKPFVF [VIR-102C9] showed a pIC50 (wild-type HIV-1 NL4-3) of 6.70.
With Maraviroc the “replication of R5-tropic HIV-1 in PBMCs (infectious virus yield)” value (R5-tropic HIV-1) was “prevented”.
“Streptavidin: tetrameric biotin-binding protein, carrier” was tested, and the “effect on HIV-1 infection efficiency” value (HIV-1 NL4-3) was “do not alter”.
